Data as given in the NIST ThermoML archive (doi:10.1021/je400130b).

Assay: molar heat capacity at constant pressure
Settings: 101.33 kPa, Crystal, Small (less than 1 g) adiabatic calorimetry

O=S(=O)([O-])[O-].[Cu+2].[Cu+2].[Cu+2].[OH-].[OH-].[OH-].[OH-] [copper(II) tetrahydroxide sulfate]
Settings	molar heat capacity at constant pressure [J/K/mol]
144.68 K	141.3
145.22 K	142.14
147.87 K	144.34
148.42 K	144.91
150 K	146.3
151.08 K	147.15
151.63 K	147.79
153.75 K	149.17
154.85 K	150.6
155.89 K	151.01
158.03 K	152.89
158.08 K	153.14
160 K	154.8
160.17 K	154.93
161.31 K	155.76
162.32 K	156.42
164.47 K	158.12
164.54 K	158.38
166.62 K	159.83
167.79 K	161.29
168.77 K	161.72
170 K	162.9
170.92 K	163.42
171.04 K	163.63
173.08 K	165.15
174.3 K	166.52
175.23 K	166.71
177.4 K	168.6
177.57 K	168.98
179.56 K	169.93
180 K	170.9
180.86 K	171.6
181.72 K	171.53
183.88 K	173.5
184.14 K	174.07
186.04 K	174.91
187.43 K	176.58
188.2 K	176.89
190 K	178.5
190.37 K	178.59
190.73 K	179
192.53 K	179.84
194.03 K	181.5
194.69 K	181.95
196.86 K	183.62
197.33 K	184.05
199.04 K	185.07
200 K	185.9
200.64 K	186.38
201.21 K	186.11
203.39 K	188.25
203.96 K	188.7
205.57 K	189.66
207.29 K	191
207.76 K	190.53
209.94 K	192.52
210 K	192.8
210.62 K	193.2
212.16 K	193.78
213.96 K	195.29
214.35 K	195.47
216.54 K	197.08
217.3 K	197.61
218.74 K	198.53
220 K	199.5
220.63 K	199.85
220.93 K	199.41
223.12 K	200.77
223.97 K	202.1
225.3 K	202.74
227.29 K	204.34
227.48 K	203.96
229.65 K	205.76
230 K	206.1
230.62 K	206.56
231.82 K	207.32
233.94 K	208.88
233.99 K	208.88
236.16 K	210.12
237.24 K	210.9
238.32 K	211.49
240 K	212.7
240.47 K	213.05
240.54 K	213.1
242.63 K	214.29
243.84 K	215.04
244.78 K	215.47
246.91 K	216.48
247.12 K	217.09
249.05 K	217.96
250 K	218.9
250.39 K	219.06
251.18 K	219.63
253.31 K	221.05
253.64 K	221.26
255.43 K	222.37
256.89 K	223.31
257.55 K	223.64
259.67 K	224.86
260 K	225.1
260.12 K	225.23
261.78 K	226.04
263.34 K	227.07
263.89 K	227.38
265.99 K	228.04
266.52 K	229.07
268.1 K	229.52
269.68 K	230.88
270 K	231.1
270.18 K	231.01
272.26 K	232.16
272.81 K	232.32
273.15 K	232.9
274.34 K	233.42
275.92 K	234.35
276.41 K	234
278.48 K	235.58
278.99 K	236.21
280 K	236.7
280.47 K	237.16
282.03 K	237.88
282.51 K	238.07
284.55 K	239.1
284.97 K	239.95
286.57 K	240.28
287.96 K	241.21
288.59 K	241.63
290 K	242.2
290.6 K	242.66
290.92 K	242.32
292.61 K	243.54
293.88 K	243.77
294.6 K	244.61
296.58 K	245.63
296.81 K	245.8
298.15 K	246.6
298.56 K	246.66
299.68 K	247.51
300 K	247.6
300.53 K	247.64
302.49 K	248.72
302.54 K	249.04
304.44 K	249.67
305.37 K	250.52
306.39 K	250.6
308.18 K	251.84
308.34 K	251.49
310 K	252.8
310.27 K	252.37
310.97 K	253.24
312.09 K	253.75
313.74 K	254.51
314.01 K	254.23
315.94 K	255.03
316.5 K	255.82
317.86 K	255.92
319.23 K	257.03
319.77 K	256.66
320 K	257.4
321.68 K	257.57
321.95 K	258.16
323.58 K	258.37
